ChEMBL document CHEMBL5244260, “Aldose reductase and protein tyrosine phosphatase 1B inhibitors as a promising therapeutic approach for diabetes mellitus” (Eur J Med Chem, 2020)

What was measured:
Mus musculus = assay: Anti-diabetic activity in ob/ob diabetic C57BL/6J mouse assessed as decrease in glucose level at 25 mg/kg,po dosed for 4 days; type: functional; parameters: scale not given: the % may be the effect or the level left; conditions: time 4 day
[1] = biological target: T1, Receptor-type tyrosine-protein phosphatase alpha (Homo sapiens, UniProt P18433); assay: Inhibition of PTPalpha (unknown origin)
T1 sequence (P18433 whole entry): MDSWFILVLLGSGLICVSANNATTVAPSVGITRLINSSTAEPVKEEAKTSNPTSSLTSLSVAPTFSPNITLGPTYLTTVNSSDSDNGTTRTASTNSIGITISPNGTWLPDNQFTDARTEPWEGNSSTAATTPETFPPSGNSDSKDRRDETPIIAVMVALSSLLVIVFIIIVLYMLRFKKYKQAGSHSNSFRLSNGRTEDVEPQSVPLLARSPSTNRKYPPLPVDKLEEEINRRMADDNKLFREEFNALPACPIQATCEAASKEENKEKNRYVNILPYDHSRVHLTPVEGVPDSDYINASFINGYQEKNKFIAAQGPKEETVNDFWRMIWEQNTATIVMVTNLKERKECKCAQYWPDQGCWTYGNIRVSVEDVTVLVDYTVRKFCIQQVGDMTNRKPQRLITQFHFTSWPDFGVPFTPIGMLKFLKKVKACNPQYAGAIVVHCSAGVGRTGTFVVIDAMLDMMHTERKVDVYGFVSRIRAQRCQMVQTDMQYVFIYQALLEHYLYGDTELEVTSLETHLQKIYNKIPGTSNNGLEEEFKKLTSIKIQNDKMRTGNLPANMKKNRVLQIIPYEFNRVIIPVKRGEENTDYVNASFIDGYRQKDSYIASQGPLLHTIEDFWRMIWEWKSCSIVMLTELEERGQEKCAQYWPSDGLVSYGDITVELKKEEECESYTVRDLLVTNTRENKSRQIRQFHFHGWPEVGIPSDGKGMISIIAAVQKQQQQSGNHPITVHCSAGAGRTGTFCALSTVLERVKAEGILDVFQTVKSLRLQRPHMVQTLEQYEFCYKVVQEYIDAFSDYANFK

[2] = biological target: T2, Tyrosine-protein phosphatase non-receptor type 7 (Homo sapiens, UniProt P35236); assay: Inhibition of HEPTP (unknown origin)
T2 sequence (P35236 whole entry): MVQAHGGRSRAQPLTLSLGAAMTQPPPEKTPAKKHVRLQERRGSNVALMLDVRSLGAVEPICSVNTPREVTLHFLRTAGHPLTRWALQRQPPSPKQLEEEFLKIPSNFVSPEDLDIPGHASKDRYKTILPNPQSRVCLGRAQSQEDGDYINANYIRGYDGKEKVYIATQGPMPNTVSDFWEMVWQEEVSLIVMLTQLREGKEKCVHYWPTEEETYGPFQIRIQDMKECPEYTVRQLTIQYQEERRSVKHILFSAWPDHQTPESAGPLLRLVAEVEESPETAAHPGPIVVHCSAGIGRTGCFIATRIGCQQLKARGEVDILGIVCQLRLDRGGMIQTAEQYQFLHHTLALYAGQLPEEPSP

[3] = biological target: T3, Tyrosine-protein phosphatase non-receptor type 1 (Homo sapiens, UniProt P18031); assay: Inhibition of human recombinant PTP1B expressed in Escherichia coli using pNPP as substrate by microplate reader assay
T3 sequence (P18031 whole entry): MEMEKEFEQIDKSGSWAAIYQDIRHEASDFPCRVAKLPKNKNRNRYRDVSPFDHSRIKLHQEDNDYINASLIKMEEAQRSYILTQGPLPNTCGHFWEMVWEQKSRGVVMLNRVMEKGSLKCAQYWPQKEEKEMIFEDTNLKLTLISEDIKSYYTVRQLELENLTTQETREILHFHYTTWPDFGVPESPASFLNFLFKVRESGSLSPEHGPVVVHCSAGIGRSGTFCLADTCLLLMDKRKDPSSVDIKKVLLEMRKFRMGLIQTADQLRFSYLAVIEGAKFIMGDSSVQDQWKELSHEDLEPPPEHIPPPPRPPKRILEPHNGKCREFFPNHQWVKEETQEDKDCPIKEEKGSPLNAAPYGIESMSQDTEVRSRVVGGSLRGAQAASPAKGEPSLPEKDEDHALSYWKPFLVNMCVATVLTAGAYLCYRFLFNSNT

[4] = biological target: T1, Receptor-type tyrosine-protein phosphatase alpha; assay: Inhibition of human PTPalpha assessed as inhibition constant
[5] = biological target: Receptor-type tyrosine-protein phosphatase F (Rattus norvegicus, UniProt Q64604); assay: Inhibition of rat recombinant LAR expressed in Escherichia coli assessed as inhibition constant using pNPP as substrate incubated for 5 mins by […]
Receptor-type tyrosine-protein phosphatase F, sequence (Q64604 whole entry, the tested form may be a part): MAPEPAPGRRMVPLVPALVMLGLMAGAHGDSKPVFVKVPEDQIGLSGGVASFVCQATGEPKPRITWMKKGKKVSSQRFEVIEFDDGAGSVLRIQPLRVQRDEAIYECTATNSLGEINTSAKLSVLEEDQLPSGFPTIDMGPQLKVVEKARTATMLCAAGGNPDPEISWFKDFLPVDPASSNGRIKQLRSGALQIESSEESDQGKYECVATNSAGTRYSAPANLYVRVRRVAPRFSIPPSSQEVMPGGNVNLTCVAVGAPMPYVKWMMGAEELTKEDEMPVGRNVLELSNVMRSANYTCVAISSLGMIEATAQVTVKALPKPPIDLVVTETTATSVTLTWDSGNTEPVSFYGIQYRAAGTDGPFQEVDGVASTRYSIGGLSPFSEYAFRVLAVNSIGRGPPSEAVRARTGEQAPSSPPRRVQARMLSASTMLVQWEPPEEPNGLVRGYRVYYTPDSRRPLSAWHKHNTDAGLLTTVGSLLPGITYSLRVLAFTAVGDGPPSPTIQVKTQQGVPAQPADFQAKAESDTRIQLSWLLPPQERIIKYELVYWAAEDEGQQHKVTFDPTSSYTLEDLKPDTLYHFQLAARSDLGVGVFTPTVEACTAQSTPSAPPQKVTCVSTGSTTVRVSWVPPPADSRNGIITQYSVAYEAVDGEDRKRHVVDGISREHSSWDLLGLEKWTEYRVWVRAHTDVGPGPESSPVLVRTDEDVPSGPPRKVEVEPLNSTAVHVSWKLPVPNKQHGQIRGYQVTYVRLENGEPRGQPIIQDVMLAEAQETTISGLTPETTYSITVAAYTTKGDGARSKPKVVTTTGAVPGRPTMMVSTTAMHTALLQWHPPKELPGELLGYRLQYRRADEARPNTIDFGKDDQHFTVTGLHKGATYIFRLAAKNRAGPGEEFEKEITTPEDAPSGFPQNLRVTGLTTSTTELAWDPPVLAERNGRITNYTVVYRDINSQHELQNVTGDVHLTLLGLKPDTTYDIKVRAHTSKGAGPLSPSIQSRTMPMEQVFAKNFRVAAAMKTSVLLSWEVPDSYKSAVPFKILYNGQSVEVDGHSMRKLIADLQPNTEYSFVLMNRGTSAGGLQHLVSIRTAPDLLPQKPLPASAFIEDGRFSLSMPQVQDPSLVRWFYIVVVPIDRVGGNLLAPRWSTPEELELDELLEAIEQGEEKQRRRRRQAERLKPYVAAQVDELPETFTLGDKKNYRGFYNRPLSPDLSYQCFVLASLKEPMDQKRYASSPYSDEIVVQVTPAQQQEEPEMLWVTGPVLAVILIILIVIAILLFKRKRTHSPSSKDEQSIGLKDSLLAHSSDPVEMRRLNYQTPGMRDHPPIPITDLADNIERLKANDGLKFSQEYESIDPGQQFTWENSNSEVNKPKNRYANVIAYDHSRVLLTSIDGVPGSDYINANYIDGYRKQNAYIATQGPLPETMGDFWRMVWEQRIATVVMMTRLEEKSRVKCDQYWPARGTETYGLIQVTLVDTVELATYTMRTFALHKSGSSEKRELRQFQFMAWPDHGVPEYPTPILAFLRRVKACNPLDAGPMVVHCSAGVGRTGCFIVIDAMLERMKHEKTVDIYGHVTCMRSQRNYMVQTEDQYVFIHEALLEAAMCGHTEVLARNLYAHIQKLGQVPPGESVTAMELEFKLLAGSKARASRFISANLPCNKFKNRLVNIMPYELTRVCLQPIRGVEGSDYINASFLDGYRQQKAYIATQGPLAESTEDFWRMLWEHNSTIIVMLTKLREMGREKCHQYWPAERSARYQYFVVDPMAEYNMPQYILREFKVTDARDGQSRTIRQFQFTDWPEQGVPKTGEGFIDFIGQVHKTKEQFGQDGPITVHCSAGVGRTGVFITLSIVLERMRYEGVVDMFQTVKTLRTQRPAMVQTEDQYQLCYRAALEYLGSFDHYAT

[6] = biological target: T3, Tyrosine-protein phosphatase non-receptor type 1; assay: Inhibition of human recombinant PTP1B (1 to 321 residues) expressed in Escherichia coli BL21 (DE3) assessed as inhibition constant using pNPP as substrate by Michaelis-Menten analysis
[7] = biological target: Dual specificity protein phosphatase 3 (Homo sapiens, UniProt P51452); assay: Inhibition of human recombinant VHR expressed in Escherichia coli BL21 (DE3) assessed as inhibition constant using pNPP as substrate by stopped-flow spectrophotometer
Dual specificity protein phosphatase 3, sequence (P51452 whole entry): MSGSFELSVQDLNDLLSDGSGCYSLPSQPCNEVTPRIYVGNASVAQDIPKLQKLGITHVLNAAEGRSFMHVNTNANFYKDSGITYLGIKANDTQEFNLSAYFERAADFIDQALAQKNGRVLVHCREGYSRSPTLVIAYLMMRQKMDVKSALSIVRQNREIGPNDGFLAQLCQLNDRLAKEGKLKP

[8] = biological target: T4, Aldo-keto reductase family 1 member B1 (Homo sapiens, UniProt P15121); assay: Inhibition of human Aldose reductase using glyceraldehyde as substrate preincubated for 5 mins in presence of NADPH followed by substrate addition and measured after 3 mins by UV-visible spectrophotometric assay
[9] = biological target: T4, Aldo-keto reductase family 1 member B1; assay: Inhibition of human ALR2 assessed as inhibition constant
[10] = Inhibition of human recombinant ALR1 expressed in Escherichia coli by Coomassie reagent assay
[11] = biological target: T3, Tyrosine-protein phosphatase non-receptor type 1; assay: Inhibition of human recombinant PTP1B (1 to 321 residues) expressed in Escherichia coli BL21 assessed as inhibition constant using pNPP as substrate
[12] = biological target: T3, Tyrosine-protein phosphatase non-receptor type 1; assay: Inhibition of human recombinant PTP1B expressed in Escherichia coli BL21 (DE3) using pNPP as substrate by high-throughput screening assay
[13] = biological target: T4, Aldo-keto reductase family 1 member B1; assay: Inhibition of human ALR2 expressed in Escherichia coli BL21 (DE3) assessed as inhibition constant using D,L-glyceraldehyde as substrate in presence of NADPH by Michaelis-Menten analysis
[14] = biological target: Aldo-keto reductase family 1 member B1 (Sus scrofa, UniProt P80276); assay: Inhibition of ALR2 in pig lens using D,L-glyceraldehyde as substrate preincubated for 4 mins in presence of NADPH followed by substrate addition and measured after 4 mins by spectrophotometric assay; type: tissue-based
[15] = biological target: T5, Tyrosine-protein phosphatase non-receptor type 2 (Homo sapiens, UniProt P17706); assay: Inhibition of Flag-tagged human TCPTP (1 to 296 residues) expressed in Escherichia coli BL21 using FDP as substrate
T5 sequence (P17706 whole entry): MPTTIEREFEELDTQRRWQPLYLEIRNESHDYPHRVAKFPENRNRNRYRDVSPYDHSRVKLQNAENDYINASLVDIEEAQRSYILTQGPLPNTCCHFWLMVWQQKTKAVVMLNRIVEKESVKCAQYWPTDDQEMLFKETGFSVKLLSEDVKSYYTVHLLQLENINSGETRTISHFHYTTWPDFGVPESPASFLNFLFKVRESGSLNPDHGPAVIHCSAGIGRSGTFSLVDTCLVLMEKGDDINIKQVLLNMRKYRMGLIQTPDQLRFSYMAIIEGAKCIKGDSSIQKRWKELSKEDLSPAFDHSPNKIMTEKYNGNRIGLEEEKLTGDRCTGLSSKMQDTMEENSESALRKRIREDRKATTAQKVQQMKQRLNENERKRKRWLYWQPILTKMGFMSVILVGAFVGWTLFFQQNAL

[16] = biological target: T3, Tyrosine-protein phosphatase non-receptor type 1; assay: Inhibition of Flag-tagged human PTP1B (1 to 298 residues) expressed in Escherichia coli BL21 using FDP as substrate
[17] = biological target: T6, Aldo-keto reductase family 1 member B1 (Rattus norvegicus, UniProt P07943); assay: Inhibition of recombinant Aldose reductase in rat lens using D,L-glyceraldehyde as substrate in presence of NADPH measured after 4 mins by spectrophotometric assay; type: tissue-based
[18] = biological target: T6, Aldo-keto reductase family 1 member B1; assay: Inhibition of ALR in Fischer-344 rat lens using D,L-glyceraldehyde as substrate in presence of NADPH measured after 3 mins by spectrophotometric assay; type: tissue-based
[19] = biological target: T4, Aldo-keto reductase family 1 member B1; assay: Inhibition of Aldose reductase (unknown origin)
[20] = biological target: T4, Aldo-keto reductase family 1 member B1; assay: Inhibition of Aldose reductase in human muscle tissue using D,L-glyceraldehyde as substrate in presence of NADPH by spectrophotometric assay; type: tissue-based
[21] = biological target: T3, Tyrosine-protein phosphatase non-receptor type 1; assay: Inhibition of PTP1B (1 to 321 residues) (unknown origin) expressed in Escherichia coli BL21 assessed as inhibition constant using pNPP as substrate incubated for 2 to 3 min by spectrophotometry analysis

O=C(O)[C@H](Cc1ccccc1)Oc1ccc(-c2ccc(-c3c(Cc4ccccc4)oc4ccccc34)cc2)cc1
Activity (Mus musculus): 27%
IC50 [1]: 33.7 µM
IC50 [2]: 7.1 µM

CC(=C\c1csc([C@@H](Cc2ccc(OCc3ccccc3)cc2)NC(=O)CC2CCCCC2)n1)/C=C(\C)C(=O)O
IC50 [3]: 2.48 µM

O=C(CCc1ccc(C(F)(F)P(=O)(O)O)cc1)Nc1cc(NC(=O)CCc2ccc(C(F)(F)P(=O)(O)O)cc2)cc(C(=O)NCCc2ccc(C(=O)O)cc2)c1
Ki [4]: 120 µM
Ki [5]: 100 µM
Ki [6]: 0.93 µM
Ki [7]: 3600 µM

Nc1ccc(CNC(=O)c2ccc(Cl)cc2OCC(=O)O)c(F)c1
IC50 [8]: 1.3 µM

N#Cc1ccc(CNC(=O)c2ccc(Cl)cc2OCC(=O)O)cc1
Ki [9]: 2 µM

O=C(O)COc1cc(F)ccc1C(=S)NCc1ccc(Br)cc1F
IC50 [10]: 33 µM

CCCCCNC(=O)[C@H](Cc1ccc(OCC(=O)O)c(C(=O)O)c1)NC(=O)[C@H](Cc1ccccc1)NC(=O)CCC(=O)O
Ki [11]: 0.25 µM

Cc1cc(/C=C2/S/C(=N/c3ccc(Cl)cc3)NC2=O)c(C)n1-c1cc(C(=O)O)cc(C(=O)O)c1
IC50 [12]: 1.6 µM

N#Cc1ccc(CNC(=O)c2ccc(Cl)cc2OCC(=O)O)cc1[N+](=O)[O-]
Ki [13]: 0.107 µM

Cc1cc2c(s1)CCC1CC(=O)N(CCCCCC(=O)O)N=C21 (configuration not stated)
IC50 [14]: 18 µM

Cc1noc(-c2ccc(C(C/C=C/c3ccccc3)(Cc3ccc(C(F)(F)P(=O)(O)O)cc3)n3nnc4ccccc43)cc2)n1 (configuration not stated)
IC50 [15]: 1.6 µM
IC50 [16]: 0.163 µM

COc1ccc2c(c1)C=Cc1cc(OC)ccc1C2/C=C1\SC(=O)NC1=O
IC50 [17]: 3.4 µM

O=C(O)Cn1ccc(-c2nc3ccccc3s2)c1
IC50 [18]: 0.049 µM

O=[N+]([O-])c1cc(Br)cc2c1NC=NS2(=O)=O
IC50 [19]: 4.6 µM

Cc1ccc(F)c(N(C)S(=O)(=O)C[N+](=O)[O-])c1
IC50 [20]: 0.35 µM

CCCCCCCCCCCCCCC(=O)N[C@@H](Cc1ccc(C(F)(F)P(=O)(O)O)cc1)C(=O)N[C@@H](CC(=O)O)C(=O)N[C@@H](Cc1ccc(C(F)(F)P(=O)(O)O)cc1)C(N)=O
Ki [21]: 0.025 µM
